The test system of one series is Suit-2 cells. Put plainly: SRB antiproliferative assay, Suit-2. It counts as cell-based, human. The note with it: for IC50: Homo sapiens, Suit-2, 72 h, mean ± SEM, read-out: Half-maximal inhibitory concentration (IC50); for Cell growth percentage: Suit-2, 10 μM, 72 h exposure. How it is done:
(§1) The cytotoxic activity of the nortopsentin derivatives 3b, 3e, 4c, 5b, and 6c on pancreatic cancer cells (BxPC-3, Panc-1, Suit-2, Capan-1, PaTu-T, primary PDAC-3 and resistant Panc-1-GR cells) was determined by the sulforhodamine B (SRB) chemosensitivity assay, as described previously. Cells were plated in 96-well flat-bottom plates at final concentrations ranging from 3000–5000 cells/well in 100 µL of medium. After a 24 h pre-incubation period, cells were treated with the compounds at nine screening concentrations (from 0.1 μM to 40 μM) in triplicate and incubated at 37 °C for 72 h. After the treatment, cells were fixed with 25 µL of cold 50% trichloroacetic acid (TCA) for each well and incubated at 4 °C for 1 h. Afterwards, plates were washed five times with demi-water and air-dried overnight. Then, the plates were stained with 50 µL of 0.4% SRB solution in 1% acetic acid for 15 min. The excess stain was rinsed off by placing the plates under running 1% acetic acid and allowed to dry at room temperature overnight. SRB staining was rinsed with 150 µL tris(hydroxymethyl)aminomethane solution pH = 8.8 (TRIS-base), and the optical density (OD) was read at 492 nm. Each assay was performed in triplicate and assays were repeated at least three times. The comparison of the average optical density of the growth in control wells with that in the sample wells allowed the estimation of the percentage of cell growth, using the following equation: % Cell Growth = (mean ODcompound − mean ODday zero plate)/(mean ODcells − mean ODday zero plate) × 100
(§2) The results obtained were adjusted by the day zero plate (wells containing cells growing for only 24 h) and normalized by the control cells (wells with untreated cells) to obtain the rate of viable cells.

Series [1] deals with BxPC-3 cells. The series is described as follows: SRB antiproliferative assay, BxPC-3. It counts as cell-based, human. The settings on record: for Cell growth percentage: BxPC-3, 10 μM, 72 h exposure; for IC50: Homo sapiens, BxPC-3, 72 h, mean ± SEM, read-out: Half-maximal inhibitory concentration (IC50). The method, then:
as §1, §2

A further series relates to Panc-1 cells. The series is described as follows: SRB antiproliferative assay, Panc-1. In kind it is cell-based, human. The note with it: for Cell growth percentage: Panc-1, 10 μM, 72 h exposure; for IC50: Homo sapiens, Panc-1, 72 h, mean ± SEM, read-out: Half-maximal inhibitory concentration (IC50). The method, then: as §1, §2
Another series relates to PDAC-3 cells. The series is described as follows: SRB antiproliferative assay, primary culture PDAC-3. In kind it is cell-based, human. The note with it: for IC50: Homo sapiens, PDAC-3, 72 h, mean ± SEM, read-out: Half-maximal inhibitory concentration (IC50); for Cell growth percentage: PDAC-3, 10 μM, 72 h exposure. How it is done:
as §1, §2

For a further series, the system named is PaTu-T cells. Put plainly: SRB antiproliferative assay, PaTu-T. The settings on record: for Cell growth percentage: 10 μM, 72 h exposure; for IC50: Homo sapiens, 72 h, mean ± SEM, read-out: Half-maximal inhibitory concentration (IC50). In kind it is cell-based, human. The method, then:
as §1, §2

For the next series, the system named is Capan-1 cells. Put plainly: SRB antiproliferative assay, Capan-1. It counts as cell-based, human. The note with it: for Cell growth percentage: Capan-1, 10 μM, 72 h exposure; for IC50: Homo sapiens, Capan-1, 72 h, mean ± SEM, read-out: Half-maximal inhibitory concentration (IC50). The method, then: as §1, §2
The subject of another series is Panc-1-GR cells. Put plainly: SRB antiproliferative assay, gemcitabine-resistant Panc-1-GR. It counts as cell-based, human. The settings on record: for Cell growth percentage: 10 μM, 72 h exposure; for IC50: Homo sapiens, 72 h, mean ± SEM, read-out: Half-maximal inhibitory concentration (IC50). How it is done: as §1, §2
The test system of series [2] is BxPC-3 cells. Put plainly: Scratch wound-healing assay, BxPC-3. In kind it is cell-based, human. The settings on record: BxPC-3, 8 h, 4 × IC50, untreated = 100% wound closure. How it is done: Cell migration was assessed using a wound-healing assay, as described previously. A total of 5 × 10^4 cells/well were seeded in a 96-well plate, to form a confluent monolayer. Scratches were created in confluent cell layers using the sterile scratch tool. The detached cells following scratch induction were removed and new medium was added to the wells. Cells were next treated with compounds 3b and 5b at a concentration of 4 × IC50. Cells growing in a complete medium were maintained at 37 °C with a supply of 5% CO2/95% air atmosphere and 100% relative humidity. The progress of wound closure was observed and documented at various time points (0th, 4th, 8th, 20th, and 24th h) using phase-contrast microscopy. Pictures of the plates were taken using the Universal Grab 6.3 software (DCILabs) from a computer connected to a Leica microscope with a JAI TMC-1327 camera.
The percentage of migration was calculated using the following equation:%Migration = (Width of the wound at T = 0 − Width of the wound at T = X)/(Width of the wound at T = 0) × 100

The next series concerns PDAC cells. Put plainly: SRB antiproliferative assay, whole PDAC panel. In kind it is cell-based. The settings on record: Homo sapiens; seven PDAC models, 72 h; read-out: IC50 values, range over the PDAC cell panel. The method, then: as §1, with “The comparison of the average optical density of the growth in control wells with that in the sample wells allowed the estimation of the percentage of cell growth, using the following equation: % Cell Growth = (mean ODcompound − mean ODday zero plate)/(mean ODcells − mean ODday zero plate) × 100” left out

This is an account of results in publication PMC10381170, “1,3,4-Oxadiazole and 1,3,4-Thiadiazole Nortopsentin Derivatives against Pancreatic Ductal Adenocarcinoma: Synthesis, Cytotoxic Activity, and Inhibition of CDK1” (Marine Drugs, 2023).

As for `Cn1cc(-c2nnc(-c3cn(C)c4ncccc34)s2)c2cc(Br)ccc21` [5c, 3-[5-(5-bromo-1-methyl-1H-indol-3-yl)-1,3,4-thiadiazol-2-yl]-1-methyl-7-azaindole], the melting point is 292 °C.

`Cn1cc(-c2nnc(-c3ccccc3)o2)c2cc(Br)cnc21` [4d, 5-bromo-1-methyl-3-(5-phenyl-1,3,4-oxadiazol-2-yl)-7-azaindole]: the melting point turned out to be 236 °C.

`Cn1cc(-c2nnc(-c3ccccc3)s2)c2cc(Br)cnc21` [6d, 5-bromo-1-methyl-3-(5-phenyl-1,3,4-thiadiazol-2-yl)-7-azaindole] gave a melting point of 188 °C.

Regarding `Cn1cc(-c2nnc(-c3cn(C)c4ncc(Br)cc34)o2)c2cc(F)ccc21` [3g, 5-bromo-3-[5-(5-fluoro-1-methyl-1H-indol-3-yl)-1,3,4-oxadiazol-2-yl]-1-methyl-7-azaindole], the melting point was determined as 310 °C.

`Cn1cc(-c2nnc(-c3cn(C)c4ncccc34)o2)c2cc(Br)ccc21` [3d, 3-[5-(5-bromo-1-methyl-1H-indol-3-yl)-1,3,4-oxadiazol-2-yl]-1-methyl-7-azaindole] had a melting point of 277 °C.

For the molecule `Cn1cc(-c2nnc(-c3cn(C)c4ncc(Br)cc34)s2)c2ccccc21` [5f, 5-bromo-1-methyl-3-[5-(1-methyl-1H-indol-3-yl)-1,3,4-thiadiazol-2-yl]-7-azaindole], the melting point worked out at 233 °C.

Molecule `Cn1cc(-c2nnc(-c3ccccc3)o2)c2cccnc21` [4b, 1-methyl-3-(5-phenyl-1,3,4-oxadiazol-2-yl)-7-azaindole] had a melting point of 201 °C.

Turning to `Cn1cc(-c2nnc(-c3cn(C)c4ncccc34)o2)c2cc(F)ccc21` [3c, 3-[5-(5-fluoro-1-methyl-1H-indol-3-yl)-1,3,4-oxadiazol-2-yl]-1-methyl-7-azaindole], the melting point came to 268 °C.

Take `Cn1cc(-c2nnc(-c3cn(C)c4ncc(Br)cc34)s2)c2cc(F)ccc21` [5h, 5-bromo-3-[5-(5-fluoro-1-methyl-1H-indol-3-yl)-1,3,4-thiadiazol-2-yl]-1-methyl-7-azaindole]: the melting point was found to be 290 °C.

As to `Cn1cc(-c2nnc(-c3cn(C)c4ncccc34)s2)c2cc(F)ccc21` [5d, 3-[5-(5-fluoro-1-methyl-1H-indol-3-yl)-1,3,4-thiadiazol-2-yl]-1-methyl-7-azaindole], the melting point stood at 240 °C.

Molecule `c1ccc(-c2nnc(-c3c[nH]c4ncccc34)s2)cc1` [6a, 3-(5-phenyl-1,3,4-thiadiazol-2-yl)-7-azaindole] registered a melting point of 249 °C.

Turning to `Cn1cc(-c2nnc(-c3cn(C)c4ncc(Br)cc34)o2)c2ccccc21` [3e, 5-bromo-1-methyl-3-[5-(1-methyl-1H-indol-3-yl)-1,3,4-oxadiazol-2-yl]-7-azaindole], the melting point was determined as 244 °C. In addition, in the series with Suit-2 cells, the IC50 was found to be 9.4 ± 4.3 µM and the Cell growth percentage was found to be 54.94%. In the series with BxPC-3 cells [1], this molecule registered a Cell growth percentage of 58.64%. This molecule also came in with a Cell growth percentage with Panc-1 cells of 61.96%. Besides, the IC50 in the series with PDAC-3 cells is 23 ± 0.06 µM. Further, the Cell growth percentage with PaTu-T cells was 72.33%. Besides, the Cell growth percentage with Capan-1 cells stood at 59.84%.

`Cn1cc(-c2nnc(-c3cn(C)c4ncccc34)s2)c2ccccc21` [5b, 1-methyl-3-[5-(1-methyl-1H-indol-3-yl)-1,3,4-thiadiazol-2-yl]-7-azaindole] came in with a melting point of 244 °C. In the series with Suit-2 cells, the IC50 came to 1.9 ± 0.27 µM and the Cell growth percentage is given as 19.46%. In the series on BxPC-3 cells [1], the Cell growth percentage came out at 32.88% and the IC50 was determined as 2.7 ± 0.68 µM. In the series with Panc-1-GR cells, the Cell growth percentage was found to be 40.65% and the IC50 came to 9.8 ± 0.05 µM. In addition, in the series with Panc-1 cells, the IC50 amounted to 3.5 ± 0.01 µM and the Cell growth percentage was found to be 15.68%. Besides, in the series with PDAC-3 cells, the IC50 was 10.6 ± 0.04 µM and the Cell growth percentage was 55.90%. In the series with BxPC-3 cells [2], the “percentage of cells migrating” value turned out to be 66%. Also, in the series on PaTu-T cells, the Cell growth percentage was 27.73% and the IC50 was 3.4 ± 0.06 µM. Further, in the series on Capan-1 cells, the Cell growth percentage was found to be 30.86% and the IC50 worked out at 3.3 ± 0.61 µM. The IC50 in the series on PDAC cells was 1.9 to 10.6 µM.

Molecule `Cn1cc(-c2nnc(-c3ccccc3)s2)c2cccnc21` [6b, 1-methyl-3-(5-phenyl-1,3,4-thiadiazol-2-yl)-7-azaindole] registered a melting point of 191 °C.

Molecule `Cn1cc(-c2nnc(-c3cn(C)c4ncc(Br)cc34)s2)c2cc(Br)ccc21` [5g, 5-bromo-3-[5-(5-bromo-1-methyl-1H-indol-3-yl)-1,3,4-thiadiazol-2-yl]-1-methyl-7-azaindole] displayed a melting point of 275 °C.

`c1ccc(-c2nnc(-c3c[nH]c4ncccc34)o2)cc1` [4a, 3-(5-phenyl-1,3,4-oxadiazol-2-yl)-7-azaindole] came in with a melting point of 272 °C.

Turning to `Cn1cc(-c2nnc(-c3cn(C)c4ncc(Br)cc34)o2)c2cc(Br)ccc21` [3f, 5-bromo-3-[5-(5-bromo-1-methyl-1H-indol-3-yl)-1,3,4-oxadiazol-2-yl]-1-methyl-7-azaindole], the melting point stood at 275 °C.

Regarding `Brc1cnc2[nH]cc(-c3nnc(-c4ccccc4)s3)c2c1` [6c, 5-bromo-3-(5-phenyl-1,3,4-thiadiazol-2-yl)-7-azaindole], the melting point was 308 °C. In addition, in the series on Suit-2 cells, the IC50 turned out to be 4.1 ± 0.9 µM and the Cell growth percentage is 29.80%. Also, the Cell growth percentage in the series on BxPC-3 cells [1] came to 54.59%. In addition, in the series with Panc-1 cells, the IC50 is 11.5 ± 1.2 µM and the Cell growth percentage is given as 83.68%. The same molecule showed a Cell growth percentage in the series with PDAC-3 cells of 87.84%. In the series with PaTu-T cells, the Cell growth percentage is recorded as 56.09% and the IC50 amounted to 3.8 ± 1.8 µM. In the series with Capan-1 cells, the Cell growth percentage amounted to 76.76% and the IC50 came to 12.6 ± 1.3 µM.

With `COc1ccc2c(c1)c(-c1nnc(-c3cn(C)c4ncccc34)s1)cn2C` [5e, 3-[5-(5-methoxy-1-methyl-1H-indol-3-yl)-1,3,4-thiadiazol-2-yl]-1-methyl-7-azaindole], the melting point came to 200 °C.

In turn, `Cn1cc(-c2nnc(-c3c[nH]c4ncccc34)o2)c2ccccc21` [3a, 3-[5-(1-methyl-1H-indol-3-yl)-1,3,4-oxadiazol-2-yl]-7-azaindole] gave a melting point of 302 °C.

For the molecule `Cn1cc(-c2nnc(-c3c[nH]c4ncccc34)s2)c2ccccc21` [5a, 3-[5-(1-methyl-1H-indol-3-yl)-1,3,4-thiadiazol-2-yl]-7-azaindole], the melting point is 246 °C.

Take `Brc1cnc2[nH]cc(-c3nnc(-c4ccccc4)o3)c2c1` [4c, 5-bromo-3-(5-phenyl-1,3,4-oxadiazol-2-yl)-7-azaindole]: the melting point is 275 °C. In the series with Suit-2 cells, this molecule showed a Cell growth percentage of 60.18%. Also, in the series on BxPC-3 cells [1], the Cell growth percentage was determined as 21.13% and the IC50 was 3.3 ± 2.4 µM. In the series with Panc-1-GR cells, the Cell growth percentage was 98.62% and the IC50 was 10.8 ± 1.4 µM. In addition, in the series on Panc-1 cells, the IC50 was found to be 13.4 ± 3.2 µM and the Cell growth percentage was determined as 74.33%. Further, the Cell growth percentage in the series on PDAC-3 cells is on record as 96.60%. Further, in the series on PaTu-T cells, the Cell growth percentage amounted to 31.22% and the IC50 was 9.7 ± 0.17 µM. For the same molecule, in the series with Capan-1 cells, the Cell growth percentage is given as 75.17% and the IC50 was found to be 10.8 ± 0.67 µM.
